Data published in BindingDB's records for doi:10.1021/jm9509096 (1996).
Counter-ions that a name gives are not always drawn.

Target: cGMP-specific 3',5'-cyclic phosphodiesterase (Cavia porcellus)
Test: Inhibition in vitro of Phosphodiesterase 5 isolated from guinea pig lung

Compound	IC50 [µM]
COc1cc2cc(CO)c(CO)c(-c3cc[nH]c(=O)c3)c2cc1OC [4-(2,3-Bis-hydroxymethyl-6,7-dimethoxy-naphthalen-1-yl)-3H-pyridin-2-one]	10
COc1cc2cc(CO)c(CO)cc2cc1OC [(3-Hydroxymethyl-6,7-dimethoxy-naphthalen-2-yl)-methanol]	> 100
COc1cc2cc(CO)c(CO)c(Cc3cc(OC)c(OC)c(OC)c3)c2cc1OC [[3-Hydroxymethyl-6,7-dimethoxy-1-(3,4,5-trimethoxy-benzyl)-naphthalen-2-yl]-methanol]	20
COc1cc2cc(CO)c(CO)c(-c3cc(OC)c(OC)c(OC)c3)c2cc1OC [[3-Hydroxymethyl-6,7-dimethoxy-1-(3,4,5-trimethoxy-phenyl)-naphthalen-2-yl]-methanol]	3
COc1cc(-c2c(CO)c(CO)cc3cc4c(cc23)OCO4)cc(OC)c1OC [[7-Hydroxymethyl-5-(3,4,5-trimethoxy-phenyl)-naphtho[2,3-d][1,3]dioxol-6-yl]-methanol]	> 30

Continued by falling IC50, values first:

IC50 [µM]	Compound
53	COc1cc2cc(CO)c(CO)c(-c3cc(OC)c(OC)c(S(C)(=O)=O)c3)c2cc1OC [[3-Hydroxymethyl-1-(3-methanesulfonyl-4,5-dimethoxy-phenyl)-6,7-dimethoxy-naphthalen-2-yl]-methanol]
30	COc1cc2cc(CO)c(CO)c(-c3cc(OC)c(OC)c(C(=O)N(C)C)c3)c2cc1OC [5-(2,3-Bis-hydroxymethyl-6,7-dimethoxy-naphthalen-1-yl)-2,3-dimethoxy-N,N-dimethyl-benzamide]
30	CCOc1cc2cc(CO)c(CO)c(-c3cc(N)c(OC)c(OC)c3)c2cc1OCC [[1-(3-Amino-4,5-dimethoxy-phenyl)-6,7-diethoxy-3-hydroxymethyl-naphthalen-2-yl]-methanol; hydrochloride]
8	COc1ccc2c(-c3cc(OC)c(OC)c(OC)c3)c(CO)c(CO)cc2c1 [[3-Hydroxymethyl-6-methoxy-1-(3,4,5-trimethoxy-phenyl)-naphthalen-2-yl]-methanol]
